Experimental findings from ChEMBL document CHEMBL1158979, “Ryanodyl 3-(pyridine-3-carboxylate): a novel ryanoid from Ryania insecticide” (J Nat Prod, 1991) are described below.

For data set [1], the system named is Mus musculus. As to the kind of experiment: Toxicity in ip dosed mouse. The data set is classed as organism-based. The settings on record: in vivo.
Data set [2] relates to Tribolium castaneum. As to the kind of experiment: Insecticidal activity against Tribolium castaneum first instar larvae. The data set is classed as functional, organism-based.
Data set [3] has as its system Musca domestica. The experiment in a line: Insecticidal activity against Musca domestica in presence of piperonyl butoxide applied topically. It counts as functional, organism-based.
The target of data set [4] is Ryanodine receptor 1 (Oryctolagus cuniculus) (UniProt P11716). As to the kind of experiment: Displacement of [3H]ryanodine from Ca2+- ryanodine 1 receptor complex in rabbit skeletal muscle. (Loss of bound radioactivity is the signal in a displacement assay; it reports binding, not function.)
Ryanodine receptor 1 (Oryctolagus cuniculus), sequence (P11716 whole entry): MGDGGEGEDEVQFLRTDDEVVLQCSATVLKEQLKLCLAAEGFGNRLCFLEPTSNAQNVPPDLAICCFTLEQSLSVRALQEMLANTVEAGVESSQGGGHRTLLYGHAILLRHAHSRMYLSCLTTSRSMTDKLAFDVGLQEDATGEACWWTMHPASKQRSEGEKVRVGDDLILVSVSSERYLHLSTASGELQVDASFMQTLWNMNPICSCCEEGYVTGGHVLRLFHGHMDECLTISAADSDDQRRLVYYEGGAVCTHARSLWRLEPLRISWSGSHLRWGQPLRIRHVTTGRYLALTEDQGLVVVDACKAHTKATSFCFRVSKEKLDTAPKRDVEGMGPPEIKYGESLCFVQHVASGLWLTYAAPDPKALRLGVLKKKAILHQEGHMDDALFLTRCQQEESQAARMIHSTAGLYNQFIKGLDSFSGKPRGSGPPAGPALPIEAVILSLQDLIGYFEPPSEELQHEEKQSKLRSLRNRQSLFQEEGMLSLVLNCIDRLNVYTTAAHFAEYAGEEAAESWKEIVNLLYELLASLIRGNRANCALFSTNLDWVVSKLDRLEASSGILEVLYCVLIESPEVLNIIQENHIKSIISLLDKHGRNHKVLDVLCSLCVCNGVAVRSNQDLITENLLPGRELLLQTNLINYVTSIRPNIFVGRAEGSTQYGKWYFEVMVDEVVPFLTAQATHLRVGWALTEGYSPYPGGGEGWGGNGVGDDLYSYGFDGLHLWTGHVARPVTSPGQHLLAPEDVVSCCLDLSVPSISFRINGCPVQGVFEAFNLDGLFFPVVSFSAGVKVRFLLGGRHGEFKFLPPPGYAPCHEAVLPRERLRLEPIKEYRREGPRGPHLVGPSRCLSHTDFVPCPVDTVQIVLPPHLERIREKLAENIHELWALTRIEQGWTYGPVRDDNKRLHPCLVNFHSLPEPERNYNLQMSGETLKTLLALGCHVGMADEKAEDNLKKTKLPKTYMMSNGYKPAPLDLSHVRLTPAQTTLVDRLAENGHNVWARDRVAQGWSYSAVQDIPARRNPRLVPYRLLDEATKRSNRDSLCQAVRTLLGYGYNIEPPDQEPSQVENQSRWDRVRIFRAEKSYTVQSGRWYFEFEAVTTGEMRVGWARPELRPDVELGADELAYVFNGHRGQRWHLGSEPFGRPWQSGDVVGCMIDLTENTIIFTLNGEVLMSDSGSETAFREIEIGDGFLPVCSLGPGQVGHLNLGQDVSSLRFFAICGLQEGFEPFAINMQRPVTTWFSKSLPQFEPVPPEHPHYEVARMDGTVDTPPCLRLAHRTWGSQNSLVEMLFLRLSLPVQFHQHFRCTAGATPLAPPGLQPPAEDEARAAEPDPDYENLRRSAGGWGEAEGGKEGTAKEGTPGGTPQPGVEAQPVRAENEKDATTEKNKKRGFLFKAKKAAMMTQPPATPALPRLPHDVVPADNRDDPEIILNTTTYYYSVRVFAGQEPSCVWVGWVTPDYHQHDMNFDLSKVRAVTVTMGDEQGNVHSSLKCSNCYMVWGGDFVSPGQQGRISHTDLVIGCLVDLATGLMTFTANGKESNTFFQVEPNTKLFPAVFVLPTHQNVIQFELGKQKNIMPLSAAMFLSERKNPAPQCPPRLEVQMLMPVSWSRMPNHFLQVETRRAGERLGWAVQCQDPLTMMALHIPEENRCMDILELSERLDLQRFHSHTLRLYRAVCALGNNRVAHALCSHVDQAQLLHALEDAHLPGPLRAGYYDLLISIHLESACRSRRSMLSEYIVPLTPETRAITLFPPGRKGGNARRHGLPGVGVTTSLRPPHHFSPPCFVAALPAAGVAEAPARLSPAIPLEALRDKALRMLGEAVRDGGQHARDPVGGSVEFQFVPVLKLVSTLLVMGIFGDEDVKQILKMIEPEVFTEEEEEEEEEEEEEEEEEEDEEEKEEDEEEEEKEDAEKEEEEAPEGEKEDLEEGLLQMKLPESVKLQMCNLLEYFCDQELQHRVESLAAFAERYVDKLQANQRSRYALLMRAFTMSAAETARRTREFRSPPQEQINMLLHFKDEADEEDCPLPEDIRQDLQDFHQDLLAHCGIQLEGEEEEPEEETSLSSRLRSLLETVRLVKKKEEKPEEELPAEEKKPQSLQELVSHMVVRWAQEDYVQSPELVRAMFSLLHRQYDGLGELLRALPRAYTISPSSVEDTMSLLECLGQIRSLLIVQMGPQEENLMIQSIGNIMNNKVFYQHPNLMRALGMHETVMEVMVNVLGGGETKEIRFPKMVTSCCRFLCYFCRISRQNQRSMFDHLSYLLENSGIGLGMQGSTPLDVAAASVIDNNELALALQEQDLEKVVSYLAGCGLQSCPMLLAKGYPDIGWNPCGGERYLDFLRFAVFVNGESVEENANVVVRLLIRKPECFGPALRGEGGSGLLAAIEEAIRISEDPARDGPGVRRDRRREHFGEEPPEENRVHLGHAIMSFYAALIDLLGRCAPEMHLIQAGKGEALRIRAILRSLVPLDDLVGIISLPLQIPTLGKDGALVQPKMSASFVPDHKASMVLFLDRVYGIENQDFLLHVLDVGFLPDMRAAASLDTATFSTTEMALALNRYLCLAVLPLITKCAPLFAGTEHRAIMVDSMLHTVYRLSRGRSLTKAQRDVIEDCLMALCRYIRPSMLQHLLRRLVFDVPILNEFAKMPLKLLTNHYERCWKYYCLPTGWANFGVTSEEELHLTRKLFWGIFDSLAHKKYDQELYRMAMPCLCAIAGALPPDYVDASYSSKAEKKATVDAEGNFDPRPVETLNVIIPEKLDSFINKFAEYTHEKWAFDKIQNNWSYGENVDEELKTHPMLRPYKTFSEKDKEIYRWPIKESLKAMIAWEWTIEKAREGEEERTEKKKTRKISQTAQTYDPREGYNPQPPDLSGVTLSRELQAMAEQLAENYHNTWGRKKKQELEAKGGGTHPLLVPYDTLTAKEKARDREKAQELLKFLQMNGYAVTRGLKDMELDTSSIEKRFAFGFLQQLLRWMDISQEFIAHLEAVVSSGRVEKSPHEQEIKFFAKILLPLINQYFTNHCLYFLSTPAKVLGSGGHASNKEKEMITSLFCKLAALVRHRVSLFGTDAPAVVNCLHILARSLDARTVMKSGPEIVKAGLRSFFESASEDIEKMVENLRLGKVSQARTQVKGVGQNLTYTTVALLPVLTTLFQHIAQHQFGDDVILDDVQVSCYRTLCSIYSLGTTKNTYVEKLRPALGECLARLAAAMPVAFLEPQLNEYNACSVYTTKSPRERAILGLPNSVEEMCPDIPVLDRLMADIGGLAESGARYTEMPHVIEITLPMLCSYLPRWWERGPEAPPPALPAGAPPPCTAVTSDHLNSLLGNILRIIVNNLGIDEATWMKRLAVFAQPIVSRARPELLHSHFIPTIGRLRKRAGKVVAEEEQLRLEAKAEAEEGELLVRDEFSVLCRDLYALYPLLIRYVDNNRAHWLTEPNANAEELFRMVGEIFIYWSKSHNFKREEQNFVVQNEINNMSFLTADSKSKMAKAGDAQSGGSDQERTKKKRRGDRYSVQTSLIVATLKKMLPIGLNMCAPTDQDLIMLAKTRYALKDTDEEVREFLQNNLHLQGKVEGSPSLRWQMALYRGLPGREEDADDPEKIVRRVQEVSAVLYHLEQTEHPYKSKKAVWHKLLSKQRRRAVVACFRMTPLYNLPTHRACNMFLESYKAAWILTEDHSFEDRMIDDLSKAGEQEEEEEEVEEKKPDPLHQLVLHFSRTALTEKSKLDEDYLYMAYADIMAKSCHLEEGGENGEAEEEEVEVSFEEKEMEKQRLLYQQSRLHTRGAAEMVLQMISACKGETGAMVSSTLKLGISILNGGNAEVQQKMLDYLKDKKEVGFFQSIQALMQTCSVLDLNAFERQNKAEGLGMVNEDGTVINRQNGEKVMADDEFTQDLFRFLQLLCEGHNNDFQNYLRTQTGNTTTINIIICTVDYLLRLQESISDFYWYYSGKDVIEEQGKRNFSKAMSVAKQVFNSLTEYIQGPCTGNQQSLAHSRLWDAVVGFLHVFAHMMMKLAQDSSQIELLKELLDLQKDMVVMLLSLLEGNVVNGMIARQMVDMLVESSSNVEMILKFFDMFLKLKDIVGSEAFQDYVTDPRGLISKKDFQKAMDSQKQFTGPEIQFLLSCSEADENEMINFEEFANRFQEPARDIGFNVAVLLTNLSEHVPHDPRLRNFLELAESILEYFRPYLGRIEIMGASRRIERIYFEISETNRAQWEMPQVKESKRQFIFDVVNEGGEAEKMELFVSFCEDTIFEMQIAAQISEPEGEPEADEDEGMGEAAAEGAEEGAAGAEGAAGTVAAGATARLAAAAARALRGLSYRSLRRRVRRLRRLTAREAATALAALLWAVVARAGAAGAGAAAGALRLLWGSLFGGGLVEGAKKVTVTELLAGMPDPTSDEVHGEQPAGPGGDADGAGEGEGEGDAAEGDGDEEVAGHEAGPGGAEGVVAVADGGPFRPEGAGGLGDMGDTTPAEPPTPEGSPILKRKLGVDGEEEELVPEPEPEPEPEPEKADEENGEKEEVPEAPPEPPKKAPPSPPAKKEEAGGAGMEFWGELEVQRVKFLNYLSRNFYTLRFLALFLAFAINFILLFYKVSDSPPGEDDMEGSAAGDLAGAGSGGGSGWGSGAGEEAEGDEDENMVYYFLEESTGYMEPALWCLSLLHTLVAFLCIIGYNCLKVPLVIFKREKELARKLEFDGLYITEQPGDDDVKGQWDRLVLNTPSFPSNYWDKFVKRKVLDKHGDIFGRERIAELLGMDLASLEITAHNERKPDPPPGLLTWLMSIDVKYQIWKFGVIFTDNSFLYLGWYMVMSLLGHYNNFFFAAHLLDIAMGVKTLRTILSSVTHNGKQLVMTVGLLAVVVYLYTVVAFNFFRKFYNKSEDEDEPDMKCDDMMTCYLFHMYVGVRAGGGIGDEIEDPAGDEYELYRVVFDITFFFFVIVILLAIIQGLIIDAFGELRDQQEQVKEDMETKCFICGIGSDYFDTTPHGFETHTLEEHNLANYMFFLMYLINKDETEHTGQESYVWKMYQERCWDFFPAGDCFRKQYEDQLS

Activity calls are given as the source filed them. No cut-off for these calls is given here.

In the case of `CC(C)[C@@]1(O)[C@@H](OC(=O)c2ccc[nH]2)[C@@]2(O)[C@@]3(C)C[C@]4(O)O[C@@]5([C@H](O)[C@@H](C)CC[C@]35O)[C@@]2(O)[C@@]14C` [RYANODINE], the result in data set [1] was Active.

Take `CC(C)[C@@]1(O)[C@@H](OC(=O)c2cc[nH]c2)[C@@]2(O)[C@]3(C)C[C@@]4(O)O[C@@]5([C@H](O)[C@@H](C)CC[C@]35O)[C@@]2(O)[C@@]41C`: the outcome in data set [2] and in data set [3] was Active.

Turning to `CC(C)[C@@]1(O)[C@@H](OC(=O)c2cccnc2)[C@@]2(O)[C@]3(C)C[C@@]4(O)O[C@@]5([C@H](O)[C@@H](C)CC[C@]35O)[C@@]2(O)[C@@]41C`, the result in data set [4], in data set [2] and in data set [3] was inactive. Further, the Activity result in data set [1] was “Not Active”.
